{
  "source": "patent US20160000762A1",
  "about": "“IMPROVING COGNITIVE FUNCTION” (THE REGENTS OF THE UNIVERSITY OF CALIFORNIA, priority 2013, published 2016)",
  "key": {"Ras": {"system": "Ras", "assay": "GST-Raf1-RBD pulldown of active Ras, APP knock-out mice", "assay_type": "in vivo", "experimental": "GST-pull-down assay. To measure levels of active Ras, brain lysate homogenized with Ral buffer (25 mM Tris-HCl, pH 7.4, 250 mM NaCl, 0.5% NP40, 1.25 mM MgCl2, and 5% glycerol) from APP transgenic, APP knockout, or wild-type mice was incubated with GST-Raf-RBD purified protein coupled with GLUTATHIONE SEPHAROSE™ (Amersham) overnight at 4° C. After 24 hours, pellets were washed with Ral buffer and western blotting was conducted with anti-Ras.\nNext, we investigated whether BTA-EG4 can alter Ras activity in APP KO mice by injecting control or BTA-EG4 for 2 weeks. […] Further, we examined the effect of BTA-EG4 on downstream Ras signaling in the presence or absence of APP. For this experiment, primary hippocampal neurons were transfected with GFP and APP shRNA or APP, treated with BTA-EG4 or control, and then immunostained against p-ERK or p-CREB."}, "dendritic spines": {"system": "dendritic spines", "assay": "Golgi staining, dendritic spines of wild-type mice", "assay_type": "in vivo", "settings": "30 mg/kg, 2 weeks", "experimental": "Golgi staining and morphological analysis of dendritic spines. To analyze dendritic spine density and morphology in brain, FD RAPID GOLGISTAIN KIT™ (FD NeuroTechnologies, Ellicott City, Md., USA) was used. Dissected mouse brains were immersed in Solution A and B for 2 weeks in dark conditions at room temperature and transferred into Solution C for 24 h at 4° C. Brains were sliced using a VT1000S Vibratome (Leica, Bannockburn, Ill., USA) at 150 μm thickness. Dendritic images were acquired by Axioplan 2 (Zeiss, Oberkochen, Germany) under brightfield microscopy. Spine width, length, and linear density of cortical layers II/III and CA1 of hippocampus were measured using Scion image software (Scion Corporation, Frederick, Md., USA). Images were coded, and dendritic spines counted in a blinded manner. Spines from 0.2 to 2 μm in length were included for analysis. All morphological analysis was done blind to experimental conditions."}, "human APP": {"target": "T1, human APP (Homo sapiens, UniProt P05067)", "T1 construct": "expressed in transfected cells; host or cells: COS7 cells", "T1 sequence (P05067 18-770)": "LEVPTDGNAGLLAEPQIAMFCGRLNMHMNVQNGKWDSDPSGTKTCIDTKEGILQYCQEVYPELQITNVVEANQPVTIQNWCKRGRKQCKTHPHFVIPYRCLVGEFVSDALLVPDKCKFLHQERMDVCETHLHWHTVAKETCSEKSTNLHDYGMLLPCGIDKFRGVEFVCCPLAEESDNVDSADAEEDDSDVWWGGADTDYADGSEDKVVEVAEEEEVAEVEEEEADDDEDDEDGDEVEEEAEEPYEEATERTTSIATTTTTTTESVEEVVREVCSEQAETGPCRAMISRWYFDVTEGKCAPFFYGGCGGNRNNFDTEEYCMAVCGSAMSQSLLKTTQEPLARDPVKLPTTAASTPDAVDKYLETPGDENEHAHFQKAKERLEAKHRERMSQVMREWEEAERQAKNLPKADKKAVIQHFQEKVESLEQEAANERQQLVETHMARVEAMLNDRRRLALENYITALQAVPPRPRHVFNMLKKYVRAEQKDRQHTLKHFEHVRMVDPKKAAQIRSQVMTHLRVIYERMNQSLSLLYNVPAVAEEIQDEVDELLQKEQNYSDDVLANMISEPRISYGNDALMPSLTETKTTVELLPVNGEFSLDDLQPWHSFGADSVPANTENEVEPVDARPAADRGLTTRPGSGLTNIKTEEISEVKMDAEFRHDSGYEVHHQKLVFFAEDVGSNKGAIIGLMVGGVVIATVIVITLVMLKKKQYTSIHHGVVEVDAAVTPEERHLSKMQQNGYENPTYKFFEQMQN", "assay": "Cell surface biotinylation, COS7 cells expressing APP", "assay_type": "cell-based", "settings": "5 μM, 24 h", "experimental": "Cell lines. COS 7 cells (Lombardi Co-Resources Cancer Center, Georgetown University) were maintained in Opti-MEMO (Invitrogen) with 10% fetal bovine serum (FBS, Life Technologies, Inc.) in a 5% CO2 incubator. The cells were transiently transfected with 0.5-1 μg of plasmid in FuGENE® 6 (Roche) according to the manufacturer's protocol and cultured 24 hr in DMEM containing 10% FBS. For co-transfections, cells were similarly transfected with 0.5-1 μg of each plasmid in FUGENE® 6 (Roche) and cultured 24 hr in DMEM with 10% FBS.\nCell surface biotinylation. COS7 cells were transiently transfected with APP for 24 hr in OPTI-MEM® containing 10% fetal bovine serum, and then treated with BTA-EG4 or control for 24 hr. After 24 hr, surface proteins were biotin labeled, immobilized with NeutrAvidin™ Gel and incubated 1 h with SDS-PAGE sample buffer, including 50 mM DTT, as described previously (Minami et al., 2010). Eluates were analyzed for APP by immunoblotting.\nIt is well known that the majority of a-secretase activity occurs on the cell surface, while β- and γ-secretase activity occurs primarily in the early and late endosomes (Huse et al., 2000; Reiss et al., 2006). Thus, if APP is present at the cell's surface, it is preferentially cleaved by α-secretase, resulting in decreased Aβ production. Therefore, we examined whether BTA-EG4 regulates cell surface expression of APP. […]"}},
  "data": [
    {"substance": "BTA-EG4", "values": [
      {"measurement": "amount of active Ras", "setting": "Ras; 30 mg/kg i.p., 2 weeks, CTRL (C)=100±1.22%, n=5", "value": "03.2±1.26", "unit": "%"},
      {"measurement": "Ras activity", "setting": "Ras; injected for 2 weeks", "value": "did not have altered"},
      {"measurement": "dendritic spine density", "setting": "dendritic spines; CA1 region of the hippocampus", "value": "significantly increased"},
      {"measurement": "dendritic spine density", "setting": "dendritic spines; cortical layers II/III", "value": "significantly increased"},
      {"measurement": "spine morphology (spine head width and spine length)", "setting": "dendritic spines; hippocampus CA1 and cortical layers II/III", "value": "did not alter"},
      {"measurement": "cell surface APP", "setting": "human APP", "value": "increased"}
    ]}
  ]
}
